Test results as given in patent publication US8952014B2, “Pyrimidine derivatives which are CGRP—antagonists” (Boehringer Ingelheim International GmbH, priority 2008, dated 2015).

Biological target: T1, human CGRP receptor (Homo sapiens, UniProt O60894+Q16602)
T1 construct: SK-N-MC membranes (˜20 μg protein) are incubated for 180 minutes at ambient temperature; endogenous in cells; host or cells: SK-N-MC cells (membranes)
Assay: Binding studies with SK-N-MC cells (125I-CGRP displacement from membranes)
Settings: 50 pM 125I-iodotyrosyl-CGRP, 180 min, ambient temperature
Method: A. Binding Studies with SK-N-MC Cells (Expressing the Human CGRP Receptor)
SK-N-MC membranes (˜20 μg protein) are incubated for 180 minutes at ambient temperature with 50 pM ^125I-iodotyrosyl-Calcitonin-Gene-Related Peptide and increasing concentrations of the test substances in a total volume of 250 μl (assay buffer: 10 mM tris, 50 mM NaCl, 5 mM MgCl2, 1 mM EDTA, pH=7.4). The incubation is ended by rapid filtration through GF/B-glass fibre filters treated with polyethyleneimine (0.1%) using a cell harvester. The protein-bound radioactivity is measured using a gamma counter. Non-specific binding is defined as the bound radioactivity after the presence of 1 μM BIBN4096BS during incubation.
The concentration binding curves are analysed using computer-aided non-linear curve fitting.

T1 sequence (Q16602 23-461): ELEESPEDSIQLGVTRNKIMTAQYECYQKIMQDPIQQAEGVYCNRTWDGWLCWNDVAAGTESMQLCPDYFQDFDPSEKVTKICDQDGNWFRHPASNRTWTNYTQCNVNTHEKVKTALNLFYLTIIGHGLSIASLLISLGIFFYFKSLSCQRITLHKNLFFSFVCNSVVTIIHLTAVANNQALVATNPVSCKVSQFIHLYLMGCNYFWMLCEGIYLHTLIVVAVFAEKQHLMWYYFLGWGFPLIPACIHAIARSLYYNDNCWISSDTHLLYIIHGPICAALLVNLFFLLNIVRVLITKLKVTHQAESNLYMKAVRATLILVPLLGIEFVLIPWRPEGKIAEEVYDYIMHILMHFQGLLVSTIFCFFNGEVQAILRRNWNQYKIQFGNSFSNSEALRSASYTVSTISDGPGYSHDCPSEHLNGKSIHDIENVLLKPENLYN
T1 sequence (O60894 27-148): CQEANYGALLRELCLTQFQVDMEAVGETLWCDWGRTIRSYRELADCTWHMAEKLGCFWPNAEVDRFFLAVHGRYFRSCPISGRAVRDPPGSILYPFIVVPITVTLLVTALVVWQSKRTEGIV

| Structure (SMILES) | Ki [nM] |
| --- | --- |
| COc1ccc2c(c1)CCN(C1CCN(c3cc(Oc4cc(C)c5nc[nH]c5c4)ncn3)CC1)C(=O)N2 [(32)] | 15 |
| COc1ccc2c(c1)CCN(C1CCN(c3cc(Oc4cc(C)c5nc(CC6CC6)[nH]c5c4)ncn3)CC1)C(=O)N2 [(33)] | 8 |
| Cc1nc2c(C)cc(Oc3cc(N4CCC(n5c(=O)[nH]c6ncccc65)CC4)ncn3)cc2[nH]1 [(34)] | 18 |
| COc1ccc2c(c1)CCN(C1CCN(c3cc(Oc4cc(C)c5nc(CC(F)(F)F)[nH]c5c4)ncn3)CC1)C(=O)N2 [(35)] | 16 |
| COc1ccc2c(c1)CCN(C1CCN(c3cc(Oc4cc(C)nc(C)c4)ncn3)CC1)C(=O)N2 [(36)] | 61 |
| COc1ccc2c(c1)CCN(C1CCN(c3cc(Oc4cc(C)c5[nH]c(=O)oc5c4)nc(N)n3)CC1)C(=O)N2 [(37)] | 65 |
| COCc1nc2c(C)cc(Oc3cc(N4CCC(N5CCc6cc(OC)ccc6NC5=O)CC4)ncn3)cc2[nH]1 [(38)] | 10 |
| COCc1nc2cc(Oc3cc(N4CCC5(CC4)OC(=O)Nc4ncccc45)ncn3)cc(C)c2[nH]1 [(39)] | 7 |
| COc1ccc2c(c1)CCN(C1CCN(c3cc(Oc4cc(C)c5[nH]c(=O)oc5c4)nc(OC)n3)CC1)C(=O)N2 [(40)] | 8 |
| Cc1cc(Oc2cc(N3CCC(n4c(=O)[nH]c5ncccc54)CC3)ncn2)cc2[nH]c(C3CC3)nc12 [(43)] | 6 |
| COc1ccc2c(c1)CCN(C1CCN(c3cc(Oc4cc(C)c5[nH]c(=O)oc5c4)nc(C4CC4)n3)CC1)C(=O)N2 [(45)] | 81 |
| COc1ccc2c(c1)CCN(C1CCN(c3nc(Cl)cc(Oc4cc(C)c5[nH]c(=O)oc5c4)n3)CC1)C(=O)N2 [(46)] | 194 |
| COc1ccc2c(c1)CCN(C1CCN(c3cc(Oc4ccc5[nH]c(=O)oc5c4)ncn3)CC1)C(=O)N2 [(47)] | 47 |
| COc1ccc2c(c1)CCN(C1CCN(c3cc(Oc4ccc(NC(C)=O)c(C)c4)ncn3)CC1)C(=O)N2 [(48)] | 96 |
| COc1ccc2c(c1)CCN(C1CCN(c3cc(Oc4ccc(N)c(C)c4)ncn3)CC1)C(=O)N2 [(49)] | 154 |
| Cc1cc(Oc2cc(N3CCC(n4c(=O)[nH]c5ncccc54)CC3)ncn2)cc2[nH]c([C@@H]3CCCO3)nc12 [(52)] | 27 |

| Structure (SMILES) | Ki [nM] |
| --- | --- |
| COc1ccc2c(c1)CCN(C1CCN(c3cc(Oc4cc(C)c5nc([C@@H]6CCCO6)[nH]c5c4)ncn3)CC1)C(=O)N2 [(53)] | 5 |
| COc1ccc2c(c1)CCN(C1CCN(c3cc(Oc4ccc5[nH]c(C)nc5c4)ncn3)CC1)C(=O)N2 [(55)] | 89 |
| COc1ccc2c(c1)CCN(C1CCN(c3cc(Oc4ccc5[nH]c(C)nc5c4Cl)ncn3)CC1)C(=O)N2 [(56)] | 29 |
| COc1ccc2c(c1)CCN(C1CCN(c3cc(Oc4cc(C)c5c(c4)OCC(=O)N5)ncn3)CC1)C(=O)N2 [(57)] | 35 |
| COCCc1nc2c(C)cc(Oc3cc(N4CCC5(CC4)OC(=O)Nc4ncccc45)ncn3)cc2[nH]1 [(66)] | 6 |
| COc1nc2cc(Oc3cc(N4CCC5(CC4)OC(=O)Nc4ncccc45)ncn3)cc(C)c2[nH]1 [(67)] | 6 |
| Cc1cc(Oc2cc(N3CCC4(CC3)OC(=O)Nc3ncccc34)ncn2)cc2cn[nH]c12 [(68)] | 4 |
| Cc1cc(Oc2cc(N3CCC4(CC3)OC(=O)Nc3ncccc34)ncn2)cc2c1NC(=O)CO2 [(69)] | 4 |
| Cc1cc(Oc2cc(N3CCC4(CC3)OC(=O)Nc3ncccc34)ncn2)cc2[nH]c([C@H]3CCCO3)nc12 [(70)] | 5 |
| Cc1nc(Oc2cc(C)c3[nH]c(=O)oc3c2)cc(N2CCC3(CC2)OC(=O)Nc2ncccc23)n1 [(71)] | 8 |
| Cc1cc(Oc2cc(N3CCC4(CC3)OC(=O)Nc3ncccc34)nc(C(F)(F)F)n2)cc2oc(=O)[nH]c12 [(74)] | 29 |
| Cc1cc(Oc2cc(N3CCC4(CC3)OC(=O)Nc3ncccc34)ncc2C#N)cc2oc(=O)[nH]c12 [(75)] | 23 |
| Cc1nc(Oc2cc(C)c3[nH]c(=O)oc3c2)cc(N2CCC3(CC2)CC(=O)Nc2ncccc23)n1 [(76)] | 26 |
| Cc1nc(Oc2cc(C)c3[nH]c(=O)oc3c2)cc(N2CCC3(CC2)C(=O)Nc2ncccc23)n1 [(77)] | 21 |
| COc1ccc2c(c1)CCN(C1CCN(c3cc(Oc4cc(C(F)(F)F)c5nc(C)[nH]c5c4)ncn3)CC1)C(=O)N2 [(79)] | 11 |
| COc1ccc2c(c1)CCN(C1CCN(c3cc(Oc4cc(C)c5[nH]c(=O)oc5c4)cc[n+]3[O-])CC1)C(=O)N2 [(80)] | 11 |

Now those with a lower Ki, led by results:

| Ki [nM] | Structure (SMILES) |
| --- | --- |
| 3 | COc1nc(Oc2cc(C)c3[nH]c(=O)oc3c2)cc(N2CCC3(CC2)OC(=O)Nc2ncccc23)n1 [(41)] |
| 2 | COc1ccc2c(c1)CCN(C1CCN(c3cc(Oc4cc(C)c5nc(C6CC6)[nH]c5c4)ncn3)CC1)C(=O)N2 [(42)] |
| 1 | Cc1cc(Oc2cc(N3CCC4(CC3)OC(=O)Nc3ncccc34)ncn2)cc2[nH]c(C3CC3)nc12 [(44)] |
| 3 | Cc1nc2cc(Oc3cc(N4CCC5(CC4)OC(=O)Nc4ncccc45)ncn3)cc(Cl)c2[nH]1 [(51)] |
| 2 | Cc1cc(Oc2cc(N3CCC4(CC3)OC(=O)Nc3ncccc34)ncn2)cc2[nH]c([C@@H]3CCCO3)nc12 [(54)] |
| 2 | Cc1cc(Oc2cc(N3CCC4(CC3)OC(=O)Nc3ncccc34)ncn2)cc2nc(C3CCOC3)[nH]c12 (centres unmarked) [(58)] |
| 2 | Cc1cc(Oc2cc(N3CCC4(CC3)OC(=O)Nc3ncccc34)ncn2)cc2nc([C@@H]3CCOC3)[nH]c12 [(59)] |
| 2 | Cc1cc(Oc2cc(N3CCC4(CC3)OC(=O)Nc3ncccc34)ncn2)cc2nc([C@H]3CCOC3)[nH]c12 [(60)] |
| 2 | O=C1Nc2ncccc2C2(CCN(c3cc(Oc4cc(Cl)c5[nH]c(C6CCOC6)nc5c4)ncn3)CC2)O1 (centres unmarked) [(61)] |
| 2 | O=C1Nc2ncccc2C2(CCN(c3cc(Oc4cc(Cl)c5[nH]c(C6CCOCC6)nc5c4)ncn3)CC2)O1 [(62)] |
| 2 | Cc1cc(Oc2cc(N3CCC4(CC3)OC(=O)Nc3ncccc34)ncn2)cc2nc(C(F)(F)F)[nH]c12 [(63)] |
| 2 | Cc1cc(Oc2cc(N3CCC4(CC3)OC(=O)Nc3ncccc34)ncn2)cc2sc(=O)[nH]c12 [(64)] |
| 3 | Cc1cc(Oc2cc(N3CCC4(CC3)OC(=O)Nc3ncccc34)ncn2)cc2nc(C3CCOCC3)[nH]c12 [(65)] |
| 3 | COc1ccc2c(c1)CCN(C1CCN(c3cc(Oc4cc(C)c5[nH]c(=O)sc5c4)ncn3)CC1)C(=O)N2 [(72)] |
| 3 | COc1ccc2c(c1)CCN(C1CCN(c3cc(Oc4cc(C)c5nc(C6CCOC6)[nH]c5c4)ncn3)CC1)C(=O)N2 (centres unmarked) [(73)] |
